# Results taken from ChEMBL document CHEMBL3774345, “Synthesis of new diarylamides with pyrimidinyl pyridine scaffold and evaluation of their anti-proliferative effect on cancer cell lines” (Bioorg Med Chem Lett, 2016).
# Tests used:
# Format in all cases: functional
# NCI-H322M = experiment: Cytotoxicity against human NCI-H322M cells assessed as cell growth at 10 uM after 24 hrs by SRB assay; conditions: read-out: Activity
# NCI-H460 = experiment: Cytotoxicity against human NCI-H460 cells assessed as cell growth at 10 uM after 24 hrs by SRB assay; conditions: NCI-H460, 24 h, read-out: Activity
# [1] = Cytotoxicity against human COLO205 cells assessed as cell growth at 10 uM after 24 hrs by SRB assay; conditions: COLO 205, 24 h, read-out: Activity
# [2] = Cytotoxicity against human HCT116 cells assessed as cell growth at 10 uM after 24 hrs by SRB assay; conditions: HCT-116, 24 h, read-out: Activity
# [3] = Cytotoxicity against human HCT15 cells assessed as cell growth at 10 uM after 24 hrs by SRB assay; conditions: HCT-15, 24 h, read-out: Activity
# [4] = Cytotoxicity against human SW620 cells assessed as cell growth at 10 uM after 24 hrs by SRB assay; conditions: SW-620, 24 h, read-out: Activity
# [5] = Cytotoxicity against human SF268 cells assessed as cell growth at 10 uM after 24 hrs by SRB assay; conditions: SF-268, 24 h, read-out: Activity
# [6] = Cytotoxicity against human SF295 cells assessed as cell growth at 10 uM after 24 hrs by SRB assay; conditions: SF-295, 24 h, read-out: Activity
# [7] = Cytotoxicity against human SF539 cells assessed as cell growth at 10 uM after 24 hrs by SRB assay; conditions: SF-539, 24 h, read-out: Activity
# [8] = Cytotoxicity against human SNB75 cells assessed as cell growth at 10 uM after 24 hrs by SRB assay; conditions: SNB-75, 24 h, read-out: Activity
# Malme-3M = experiment: Cytotoxicity against human MALME-3M cells assessed as cell growth at 10 uM after 24 hrs by SRB assay; conditions: read-out: Activity
# M14 = experiment: Cytotoxicity against human M14 cells assessed as cell growth at 10 uM after 24 hrs by SRB assay; conditions: M14, 24 h, read-out: Activity
# MDA-MB-435 = experiment: Cytotoxicity against human MDA-MB-435 cells assessed as cell growth at 10 uM after 24 hrs by SRB assay; conditions: MDA-MB-435, 24 h, read-out: Activity
# SK-MEL-2 = experiment: Cytotoxicity against human SK-MEL-2 cells assessed as cell growth at 10 uM after 24 hrs by SRB assay; conditions: SK-MEL-2, 24 h, read-out: Activity
# SK-MEL-28 = experiment: Cytotoxicity against human SK-MEL-28 cells assessed as cell growth at 10 uM after 24 hrs by SRB assay; conditions: SK-MEL-28, 24 h, read-out: Activity
# [9] = Cytotoxicity against human UACC257 cells assessed as cell growth at 10 uM after 24 hrs by SRB assay; conditions: UACC-257, 24 h, read-out: Activity
# [10] = Cytotoxicity against human UACC62 cells assessed as cell growth at 10 uM after 24 hrs by SRB assay; conditions: UACC-62, 24 h, read-out: Activity
# [11] = Cytotoxicity against human IGROV1 cells assessed as cell growth at 10 uM after 24 hrs by SRB assay; conditions: IGROV-1, 24 h, read-out: Activity
# [12] = Cytotoxicity against human OVCAR3 cells assessed as cell growth at 10 uM after 24 hrs by SRB assay; conditions: OVCAR-3, 24 h, read-out: Activity
# [13] = Cytotoxicity against human OVCAR4 cells assessed as cell growth at 10 uM after 24 hrs by SRB assay; conditions: OVCAR-4, 24 h, read-out: Activity
# [14] = Cytotoxicity against human OVCAR5 cells assessed as cell growth at 10 uM after 24 hrs by SRB assay; conditions: OVCAR-5, 24 h, read-out: Activity
# [15] = Cytotoxicity against human NCI-ADR-RES cells assessed as cell growth at 10 uM after 24 hrs by SRB assay; conditions: read-out: Activity
# ACHN = experiment: Cytotoxicity against human ACHN cells assessed as cell growth at 10 uM after 24 hrs by SRB assay; conditions: read-out: Activity
# [16] = Cytotoxicity against human RXF393 cells assessed as cell growth at 10 uM after 24 hrs by SRB assay; conditions: RXF 393, 24 h, read-out: Activity
# SN12C = experiment: Cytotoxicity against human SN12C cells assessed as cell growth at 10 uM after 24 hrs by SRB assay; conditions: read-out: Activity
# [17] = Cytotoxicity against human PC3 cells assessed as cell growth at 10 uM after 24 hrs by SRB assay; conditions: PC-3, 24 h, read-out: Activity
# [18] = Cytotoxicity against human DU145 cells assessed as cell growth at 10 uM after 24 hrs by SRB assay; conditions: DU-145, 24 h, read-out: Activity
# MCF7 = experiment: Cytotoxicity against human MCF7 cells assessed as cell growth at 10 uM after 24 hrs by SRB assay; conditions: MCF7, 24 h, read-out: Activity
# MDA-MB-231 = experiment: Cytotoxicity against human MDA-MB-231 cells assessed as cell growth at 10 uM after 24 hrs by SRB assay; conditions: MDA-MB-231, 24 h, read-out: Activity
# [19] = Cytotoxicity against human Hs 578T cells assessed as cell growth at 10 uM after 24 hrs by SRB assay; conditions: read-out: Activity
# [20] = Cytotoxicity against human NCI60 cells assessed as growth inhibition at 10 uM after 24 hrs by SRB assay; conditions: NCI60, 24 h
# CCRF-CEM = experiment: Cytotoxicity against human CCRF-CEM cells assessed as cell growth at 10 uM after 24 hrs by SRB assay; conditions: read-out: Activity
# [21] = Cytotoxicity against human HL-60(TB) cells assessed as cell growth at 10 uM after 24 hrs by SRB assay; conditions: HL-60, 24 h, read-out: Activity
# K562 = experiment: Cytotoxicity against human K562 cells assessed as cell growth at 10 uM after 24 hrs by SRB assay; conditions: K562, 24 h, read-out: Activity
# [22] = Cytotoxicity against human RPMI8226 cells assessed as cell growth at 10 uM after 24 hrs by SRB assay; conditions: RPMI-8226, 24 h, read-out: Activity
# EKVX = experiment: Cytotoxicity against human EKVX cells assessed as cell growth at 10 uM after 24 hrs by SRB assay; conditions: read-out: Activity
# [23] = Cytotoxicity against human HOP62 cells assessed as cell growth at 10 uM after 24 hrs by SRB assay; conditions: HOP-62, 24 h, read-out: Activity
# [24] = Cytotoxicity against human HOP92 cells assessed as cell growth at 10 uM after 24 hrs by SRB assay; conditions: HOP-92, 24 h, read-out: Activity
# NCI-H226 = experiment: Cytotoxicity against human NCI-H226 cells assessed as cell growth at 10 uM after 24 hrs by SRB assay; conditions: NCI-H226, 24 h, read-out: Activity
# NCI-H23 = experiment: Cytotoxicity against human NCI-H23 cells assessed as cell growth at 10 uM after 24 hrs by SRB assay; conditions: NCI-H23, 24 h, read-out: Activity
Structure (SMILES),growth at 10 µM (NCI-H322M) [%],growth at 10 µM (NCI-H460) [%],growth at 10 µM [1] [%],growth at 10 µM [2] [%],growth at 10 µM [3] [%],growth at 10 µM [4] [%],growth at 10 µM [5] [%],growth at 10 µM [6] [%],growth at 10 µM [7] [%],growth at 10 µM [8] [%],growth at 10 µM (Malme-3M) [%],growth at 10 µM (M14) [%],growth at 10 µM (MDA-MB-435) [%],growth at 10 µM (SK-MEL-2) [%],growth at 10 µM (SK-MEL-28) [%],growth at 10 µM [9] [%],growth at 10 µM [10] [%],growth at 10 µM [11] [%],growth at 10 µM [12] [%],growth at 10 µM [13] [%],further results
COCCCNc1nc(NC(=O)c2cc(OC)cc(OC)c2)cc(-c2cccnc2)n1,92.8,95.2,109,90.3,90.3,101,100,100,88.9,73.1,112,107,100,78.8,105,106,111,102,113,108,growth at 10 µM [14]: 95.7%; growth at 10 µM [15]: 83.5%; growth at 10 µM (ACHN): 98.2%; growth at 10 µM [16]: 97.7%; growth at 10 µM (SN12C): 95.3%; growth at 10 µM [17]: 87.3%; growth at 10 µM [18]: 101%; growth at 10 µM (MCF7): 97.8%; growth at 10 µM (MDA-MB-231): 69.1%; growth at 10 µM [19]: 95.3%; inhibition at 10 µM [20]: 8.06%; growth at 10 µM (CCRF-CEM): 91.7%; growth at 10 µM [21]: 90.2%; growth at 10 µM (K562): 86.1%; growth at 10 µM [22]: 69.3%; growth at 10 µM (EKVX): 105%; growth at 10 µM [23]: 91.3%; growth at 10 µM [24]: 52.6%; growth at 10 µM (NCI-H226): 96.5%; growth at 10 µM (NCI-H23): 98.6%
COCCCNc1nc(NC(=O)c2ccc(Cl)cc2C)cc(-c2cccnc2)n1,102,102,111,101,109,109,104,104,89.9,87.6,103,103,95.6,107,104,85.7,109,106,117,106,growth at 10 µM [14]: 91.6%; growth at 10 µM [15]: 108%; growth at 10 µM (ACHN): 99.1%; growth at 10 µM [16]: 91.1%; growth at 10 µM (SN12C): 111%; growth at 10 µM [17]: 110%; growth at 10 µM [18]: 103%; growth at 10 µM (MCF7): 81.1%; growth at 10 µM (MDA-MB-231): 94%; growth at 10 µM [19]: 103%; inhibition at 10 µM [20]: 0.78%; growth at 10 µM (CCRF-CEM): 96.5%; growth at 10 µM [21]: 106%; growth at 10 µM (K562): 104%; growth at 10 µM [22]: 90.2%; growth at 10 µM (EKVX): 108%; growth at 10 µM [23]: 99.3%; growth at 10 µM [24]: 67%; growth at 10 µM (NCI-H226): 89.1%; growth at 10 µM (NCI-H23): 107%
COCCCNc1nc(NC(=O)c2cc(Br)cc(C(F)(F)F)c2)cc(-c2cccnc2)n1,99.9,85.7,96.4,85.6,85.9,86.9,90.5,89.2,94,115,99.7,96.5,88.4,80.6,98.6,91,90.5,91.3,109,92.3,growth at 10 µM [14]: 100%; growth at 10 µM [15]: 99.5%; growth at 10 µM (ACHN): 87.3%; growth at 10 µM [16]: 103%; growth at 10 µM (SN12C): 89.1%; growth at 10 µM [17]: 70.6%; growth at 10 µM [18]: 100%; growth at 10 µM (MCF7): 83.8%; growth at 10 µM (MDA-MB-231): 75.8%; growth at 10 µM [19]: 83%; inhibition at 10 µM [20]: 11.3%; growth at 10 µM (CCRF-CEM): 80.8%; growth at 10 µM [21]: 94.6%; growth at 10 µM (K562): 73.3%; growth at 10 µM [22]: 65.6%; growth at 10 µM (EKVX): 96%; growth at 10 µM [23]: 91.8%; growth at 10 µM [24]: 57.9%; growth at 10 µM (NCI-H226): 91.8%; growth at 10 µM (NCI-H23): 103%
